Reference: US10111854B2, “Synthesis and use of amine-containing flavonoids as potent anti-leishmanial agents” (The Hong Kong Polytechnic University, priority 2014, dated 2018)
Structures can show the parent of a compound that is named as a salt.

Assays:
[1] = Cytotoxicity, L929 fibroblasts; type: cell-based, mouse; conditions: mouse
Experimental: (§1) IC50 values of known antileishmanials and the amine-containing flavonoid monomers of the present invention to promastigotes (L. amazonensis LV78, L major FV1, L. donovani HU3, L. donovani 39), macrophages (Raw 264.7 and PEM) and mouse fibroblast (L929) were determined. The anti-promastigotes activities and cytotoxicity of the amine-containing flavonoid monomers of the invention are shown in Table 1.

[2] = system: L. donovani HU3 promastigotes; assay: Anti-promastigote activity (MTS assay), L. donovani HU3; type: cell-based; conditions: 72 hours
In short: (§2)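 Promastigotes (1×10^5 per well) in Schneider's medium pH 6.9 with 10% FBS, exposed to serial compound concentrations for 72 h at 27 °C. Viability by MTS/PMS reduction over 4 h, OD 490 nm; IC50 derived.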

[3] = system: L. donovani Ld39 amastigotes (SSG-resistant); assay: Anti-amastigote activity in infected PEM, L. donovani Ld39; type: cell-based; conditions: for IC50: Leishmania donovani, 72 h, infected PEM, 3 days, Giemsa, SSG-resistant
In short: (§3)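 Mouse peritoneal elicited macrophages on cover slips, infected overnight at 37 °C with late-log promastigotes at 20:1 parasite:macrophage, were washed and exposed to compound for 72 h at 37 °C. Giemsa staining gave percent infected macrophages and amastigotes per 100 macrophages, from which IC50 was calculated.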

[4] = system: L. amazonensis LV78 amastigotes; assay: Anti-amastigote activity in infected PEM, L. amazonensis LV78; type: cell-based; conditions: for IC50: infected PEM, 3 days, Giemsa; for Selective index (a)/(b): IC50 RAW264.7 over IC50 L. amazonensis LV78 amastigotes
In short: as §3

[5] = system: L. donovani Ld39 promastigotes; assay: Anti-promastigote activity (MTS assay), L. donovani Ld39; type: cell-based; conditions: 72 hours
In short: as §2

[6] = system: L. amazonensis LV78 promastigotes; assay: Anti-promastigote activity (MTS assay), L. amazonensis LV78; type: cell-based; conditions: 72 hours
In short: as §2

[7] = system: L. braziliensis UA847 amastigotes; assay: Anti-amastigote activity in infected PEM, L. braziliensis UA847; type: cell-based; conditions: Leishmania braziliensis, 72 h, 3 days, Giemsa, read-out: Anti-amastigote activity IC50, L. baziliensis UA847
Experimental: (§4) Mouse peritoneal elicited macrophages (PEM) were obtained as previously described (2). A round cover slip (12 mm in diameter) was placed into each well of 24-well culture plate. Mouse PEM were resuspended in supplemented DMEM media containing 10% heat inactivated FBS (v/v), 100 U/mL penicillin and 100 μg/mL streptomycin and seeded into each well at a cell density of 1×10^5 cells per 500 μL. Macrophages were allowed to attach overnight. Non-adherent cells were removed by gentle washing with un-supplemented DMEM media twice. Adherent macrophages were infected with late-log promastigotes at a parasite-to-macrophage ratio of 20:1 overnight at 37° C. with 5% CO2. Non-internalized promastigotes were removed by washing twice with un-supplemented DMEM media. Infected macrophages were further incubated in 500 μL of supplemented DMEM media in the presence or absence of FM for 72 hours at 37° C. After incubation, cover slips were stained with Giemsa and the percentage of macrophages infected and number of amastigotes per 100 macrophages was enumerated.
(§5) PEM cells were infected with late-log promastigotes (L. amazonensis LV78, L. braziliensis UA847, L. donovani HU3, L. donovani 39) for 24 hr at 37° C. Infected macrophages were then treated with various antileishmanials and incubated for 3 days at 37° C. After 3 days, the cover slips were stained with Giemsa. The number of amastigotes per 100 macrophages were determined and used to calculate IC50 values.

[8] = system: L. donovani HU3 amastigotes; assay: Anti-amastigote activity in infected PEM, L. donovani HU3; type: cell-based; conditions: infected PEM, 3 days, Giemsa, SSG-sensitive
In short: as §3

[9] = system: L. major FV1 promastigotes; assay: Anti-promastigote activity (MTS assay), L. major FV1; type: cell-based; conditions: 72 hours
In short: as §2

[10] = Pharmacokinetics of FM05 hydrochloride salt, oral; type: in vivo, Balb/c mice; conditions: mouse, in vivo, po, 42 mg/kg
Experimental: Based on the result of the preliminary in vivo study, FM05 hydrochloride salt was selected for further investigation. FM05 hydrochloride salt was dissolved in saline at 4 mg/ml and administered to male balb/c at 42 mg/kg. Blood plasma samples were collected at various time points for pharmacokinetics analysis (n=2 to 3 for each time point).

[11] = system: peritoneal elicited macrophages (PEM); assay: Cytotoxicity, peritoneal elicited macrophages (PEM); type: cell-based, mouse
[12] = Pharmacokinetics study of FM09, FM09h and FM05b, iv and oral; type: in vivo, Balb/c mice; conditions: 50 mg/kg oral; for bioavailability: Balb/c, mouse, plasma, 10 mg/kg iv, dose-adjusted AUC oral over iv, read-out: Bioavailability (F)
Experimental: Animals were sacrificed at the indicated time point and plasma level of the corresponding flavonoids were determined using LC-MSMS. IC50 of corresponding flavonoids are indicated. Bioavailability (F) was calculated by dividing the dose-adjusted area under curve (AUC) of that of orally-fed over intravenously administered animals.

[13] = system: L. amazonensis and L. donovani HU3 promastigotes and amastigotes; assay: Anti-promastigote and anti-amastigote activity of FM09, FM01 and FM05 derivatives; type: cell-based, Leishmania; conditions: stage and strain not specified; read-out: IC50, anti-promastigote and anti-amastigote activity (Table 3C)
Experimental: Derivatives of FM09, FM01 and FM05 were synthesized and their anti-promastigote and anti-amastigote activity were determined (Table 3C). Many amine-containing flavonoid monomers have IC50 less than 5 μM, including FM09a, FM09b, FM09c, FM09e, FM09h, FM09i, FM09k, FM09l, FM01b and FM05b.

[14] = Cytotoxicity, peritoneal elicited macrophages (PEM); type: cell-based, mouse; conditions: mouse, Cytotoxicity IC50, PEM
mouse fibroblast (L929) = assay: Cytotoxicity, L929 fibroblasts; type: cell-based; conditions: mouse fibroblast L929
Experimental: as §1

[15] = system: amastigotes (L. amazonensis LV78, L. braziliensis UA847, L. donovani HU3, L. donovani 39); assay: Anti-amastigote activity, strain not given; type: cell-based; conditions: strain not specified; visceral and cutaneous Leishmania; read-out: IC50 against amastigotes
Experimental: as §4, §5

SMILES | IC50 [1] [µM] | IC50 ([2]; Leishmania donovani) [µM] | IC50 [3] [µM] | IC50 ([4]; Leishmania amazonensis, 72 h) [µM] | IC50 ([5]; Leishmania donovani) [µM] | IC50 ([6]; Leishmania amazonensis) [µM] | IC50 [7] [µM] | IC50 ([8]; Leishmania donovani, 72 h) [µM] | IC50 ([9]; Leishmania major) [µM] | IC50 [6] [µM] | IC50 [14] [µM] | IC50 (mouse fibroblast (L929)) [µM] | IC50 [2] [µM] | IC50 [4] [µM] | IC50 [8] [µM] | further results
O=C(NCCOCCOc1ccc(-c2cc(=O)c3ccccc3o2)cc1)c1ccncc1 [FM03, N-(2-(2-(4-(4-oxo-4H-chromen-2-yl)phenoxy)ethoxy)ethyl)isonicotinamide] | > 100 | 66.2 ± 11 | > 10 | > 10 | > 100 | > 100 | > 10 | > 9 | > 100 |  |  |  |  |  |  | 
Cl.O=c1cc(-c2ccc(OCCC3CCN(Cc4ccncc4)CC3)cc2)oc2ccccc12 [FM05.HCl] |  |  |  |  |  |  |  |  |  | 6 ± 0.5 |  |  |  |  |  | AUC(0-7 hr) [10]: 83089 ng·min/mL; Cmax (obs) [10]: 312.8 ng/mL; Half-life (Distribution and absorption) [10]: 0.417 h; Half-life (Elimination) [10]: 3.37 h; MRT (area) [10]: 5.35 h; Tmax (obs) [10]: 2 h; IC50 ([4]; listed as FM05.HCI): 6.9 ± 0.9 µM; IC50 [5]: 1.2 ± 0.5 µM; IC50 [11]: 23.8 µM; IC50 [9]: 3.5 ± 0.9 µM
COc1ccnc(CN2CCC(CCOc3ccc(-c4cc(=O)c5ccccc5o4)cc3)CC2)c1OC [FM05b, 2-(4-(2-(1-((3,4-dimethoxypyridin-2-yl)methyl)piperidin-4-yl)ethoxy)phenyl)-4H-chromen-4-one] | 10.6 ± 1.13 | 0.89 ± 0.33 |  | 0.3 ± 0.06 |  | 0.57 ± 0.17 |  | 0.7 ± 0.37 |  |  | 5.1 |  |  |  |  | Time post oral feeding at which plasma level remains higher than respective IC50 [12]: 420 min; bioavailability [12]: 36%; IC50 [13]: < 5 µM
CS(=O)(=O)NCCOCCOc1ccc(-c2cc(=O)c3ccccc3o2)cc1 [FM07, N-(2-(2-(4-(4-oxo-4H-chromen-2-yl)phenoxy)ethoxy)ethyl)methanesulfonamide] | 26 ± 4.1 | 38.8 ± 6.9 | > 10 | > 10 | 21.4 ± 2.6 | > 100 | > 10 |  | > 100 |  |  |  |  |  |  | 
O=c1cc(-c2ccc(OCCOCCN(Cc3ccccn3)Cc3ccccn3)cc2)oc2ccccc12 [FM09.HCl] |  |  |  |  |  |  |  |  |  | 0.7 |  | 20.2 ± 8.4 | 0.2 ± 0.1 | 0.4 | 1.8 | IC50 [5]: 0.5 ± 0.1 µM; IC50 [9]: 1.2 ± 0.3 µM
COc1ccnc(CN(CCOCCOc2ccc(-c3cc(=O)c4ccccc4o3)cc2)Cc2nccc(OC)c2OC)c1OC [FM09aHCl] |  |  |  |  |  |  |  |  |  | 0.77 ± 0.19 |  | 12.9 ± 2.4 | 0.99 ± 0.19 | 0.35 ± 0.01 | 0.5 ± 0.02 | 
O=c1cc(-c2ccc(OCCOCCN(Cc3cccnc3)Cc3cccnc3)cc2)oc2ccccc12 [FM09b.HCl] |  |  |  |  |  |  |  |  |  | 8.08 ± 1.99 |  | 75.1 ± 13.6 | 12.9 ± 7.32 | > 10 | > 10 | 
O=c1cc(-c2ccc(OCCOCCN(Cc3ncccc3F)Cc3ncccc3F)cc2)oc2ccccc12 [FM09c.HCl] |  |  |  |  |  |  |  |  |  | 2.66 ± 0.3 |  | 39 ± 6.1 | 4.97 ± 1.04 | 1.45 ± 0.31 | 2.9 ± 1.49 | 
Cc1c(OCC(F)(F)F)ccnc1CN(CCOCCOc1ccc(-c2cc(=O)c3ccccc3o2)cc1)Cc1nccc(OCC(F)(F)F)c1C [FM09h, 2-(4-(2-(2-(bis((3-methyl-4-(2,2,2-trifluoroethoxy)pyridin-2-yl)methyl)amino)ethoxy)ethoxy)phenyl)-4H-chromen-4-one] | 3.62 ± 0.51 | 1.09 ± 0.09 |  | 0.29 ± 0.05 |  | 0.47 ± 0.07 |  | 0.3 ± 0.04 |  |  | 6.4 |  |  |  |  | Time post oral feeding at which plasma level remains higher than respective IC50 [12]: 180 min; bioavailability [12]: 5%; IC50 [13]: < 5 µM
O=c1cc(-c2ccc(OCCOCCN(Cc3ccc4ccccc4n3)Cc3ccc4ccccc4n3)cc2)oc2ccccc12 [FM09l, 2-(4-(2-(2-(bis(quinolin-2-ylmethyl)amino)ethoxy)ethoxy)phenyl)-4H-chromen-4-one] | > 100 | 4.74 ± 0.56 |  | 3.03 ± 0.41 |  | 4.44 ± 1.24 |  | 4.5 ± 2.38 |  |  | 67.1 |  |  |  |  | IC50 [13]: < 5 µM
O=c1cc(-c2ccc(OCCOCCNCc3ccccn3)cc2)oc2ccccc12 [FM09m.HCl] |  |  |  |  |  |  |  |  |  | 14.3 ± 3.3 |  |  | 18.2 ± 2.13 | 7.86 ± 2.15 | > 10 | IC50 [11]: 28.3 µM
O=c1cc(-c2ccc(OCCOCCN(Cc3ccccc3)Cc3ccccc3)cc2)oc2ccccc12 [FM19, 2-(4-(2-(2-(dibenzylamino)ethoxy)ethoxy)phenyl)-4H-chromen-4-one] | 55.1 ± 7.2 | 9.8 ± 2.5 | > 10 | 1.3 ± 0.6 | > 100 | 17.5 ± 3.2 | < 0.37 | > 10 | 21.6 ± 4.2 |  |  |  |  |  |  | Selective index (a)/(b) [4]: >76.9; IC50 [15]: < 5 µM
CCCCCCCCCCCCCCCCOP(=O)([O-])OCC[N+](C)(C)C [Miltefosine, reference compound] |  | 5.1 ± 1.4 | 16 ± 6.4 | 32.7 ± 26.9 | 17.3 ± 2.1 | 32.7 ± 26.9 | 13 ± 1.3 |  | 9.7 ± 1.2 |  | 75.3 ± 9.4 |  |  |  |  | Selective index (a)/(c) ([3]; IC50 RAW264.7 over IC50 L. donovani Ld39 amastigotes): 1.3; Selective index (a)/(b) [4]: 0.6
